According to US20250255941A1 (priority 2021, published 2025):
“And” between values parts separate entries of the source, which are not always exact repeats. Equal entries are not always repeated.

Columns and labels:
prostaglandin F2a = type: cell-based; conditions: 5 μM
Keratinocytes = conditions: 5 μM

CS(=O)(=O)Nc1ccc([N+](=O)[O-])cc1OC1CCCCC1 [NS-398]
Absorbance value (405 nm), individual measurements (n=4) (prostaglandin F2a): 0.6170 and 0.6000 and 0.6110 and 0.6220 | PGF2alpha (pg/mL), individual measurements (n=4) (prostaglandin F2a): 70.9 pg/mL and 86.8 pg/mL and 76.1 pg/mL and 66.8 pg/mL | PGF2alpha (pg/mL)/MTT, Mean (prostaglandin F2a): 86.3 (pg/mL)/MTT | PGF2alpha (pg/mL)/MTT, individual measurements (n=4) (prostaglandin F2a): 81.5 (pg/mL)/MTT and 101.6 (pg/mL)/MTT and 86.6 (pg/mL)/MTT and 75.4 (pg/mL)/MTT | prostaglandin F2a expression, % of control (prostaglandin F2a): 9.3% | Cytotoxicity test (MTT), % of control (Keratinocytes): 102.0% | Cytotoxicity test (MTT), Mean (Keratinocytes): 0.8720
